Source: article PMC9610999, “Itraconazole-Induced Increases in Gilteritinib Exposure Are Mediated by CYP3A and OATP1B” (Molecules, 2022)
pIC50, pKi: −log10 of the molar value. Read-outs that look alike come from different tables or passages of the source.

Key:
human OATP1B1 (SLCO1B1) = target: T1, human OATP1B1 (SLCO1B1) (Homo sapiens, UniProt Q9Y6L6); test: Transport inhibition assay: EβG uptake in OATP1B1 overexpressing HEK293 cells; assay type: cell-based
T1 construct: expressed in transfected cells; host or cells: HEK293
T1 sequence (Q9Y6L6 1-691): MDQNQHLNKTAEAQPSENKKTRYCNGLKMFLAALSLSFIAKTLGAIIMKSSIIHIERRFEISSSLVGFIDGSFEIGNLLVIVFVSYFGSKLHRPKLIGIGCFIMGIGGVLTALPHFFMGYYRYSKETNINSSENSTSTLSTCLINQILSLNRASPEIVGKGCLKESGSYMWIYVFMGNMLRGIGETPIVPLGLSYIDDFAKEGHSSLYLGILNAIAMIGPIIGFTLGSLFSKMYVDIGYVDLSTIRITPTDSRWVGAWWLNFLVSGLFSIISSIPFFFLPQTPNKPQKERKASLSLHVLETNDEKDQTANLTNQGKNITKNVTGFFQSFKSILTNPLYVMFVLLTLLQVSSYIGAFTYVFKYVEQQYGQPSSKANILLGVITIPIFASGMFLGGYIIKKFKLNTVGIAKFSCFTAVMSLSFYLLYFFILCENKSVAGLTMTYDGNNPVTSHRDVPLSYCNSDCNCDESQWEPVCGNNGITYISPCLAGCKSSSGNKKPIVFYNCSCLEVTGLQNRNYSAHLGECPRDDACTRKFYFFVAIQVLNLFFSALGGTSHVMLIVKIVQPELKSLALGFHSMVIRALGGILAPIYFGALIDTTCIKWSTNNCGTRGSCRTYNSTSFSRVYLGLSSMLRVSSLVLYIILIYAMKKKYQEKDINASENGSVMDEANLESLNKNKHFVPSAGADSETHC
Method: Human embryonic kidney (HEK293) cells stably transfected with human OATP1B1 (SLCO1B1) cDNA, or an empty control vector were established and cultured as previously described. Cells were maintained in DMEM supplemented with 10% FBS, 50 µg/mL hygromycin B, 15 µg/mL blasticidin, and maintained in a humidified incubator at 37 °C with 5% CO2. Prior to plating, 24-well tissue culture plates (Thermo Fisher Scientific) were coated with poly-d-lysine. Seeding media was prepared using phenol red-free DMEM with 10% FBS with no selection agents. To the seeding media, […] of doxycycline was added to induce expression of OATP1B1.
OATP1B1 overexpressing cells and vector control cells were plated in 24-well tissue culture plates at a volume of 0.5 mL (containing 2 × 10^6 cells/mL) per well. Plates were returned to an incubator at 37 °C and transport assays were conducted 24 h later. Transport activity was measured using EβG, a prototypical substrate of OATP1B1. Experiments were conducted using phenol red- and serum-free DMEM. Intracellular levels of total radioactivity originating from EβG were assessed by liquid scintillation counting. The resulting counts were normalized to total protein levels as determined by a Pierce protein assay. The influence of gilteritinib, itraconazole, keto-itraconazole, or hydroxy-itraconazole on OATP1B1-mediated transport was assessed following a 15 min pre-incubation at various concentrations of test inhibitors followed by co-incubation of test inhibitors with EβG. Inhibition of transport activity by gilteritinib was determined by comparing the accumulation of EβG in the presence of gilteritinib, itraconazole, keto-itraconazole, or hydroxy-itraconazole to that of EβG in the presence of only the control vehicle, DMSO. The final concentration of DMSO in media was less than 0.2% in all in vitro experiments.

OATP1B1 = target: T2, OATP1B1 (Homo sapiens, UniProt Q9Y6L6); test: Competitive counterflow assay with ACE in OATP1B1 overexpressing HEK293 cells; assay type: cell-based; settings: gilteritinib 0.1–20 μM, 5 μM ACE, normalized to ACE alone
T2 construct: expressed in transfected cells; host or cells: HEK293
T2 sequence (Q9Y6L6 1-691): T1 sequence (Q9Y6L6 1-691)
Method: OATP1B1 overexpressing cells or vector control were seeded in 96-well plates in 200 μL DMEM and incubated for 24 h. The medium was aspirated off and the cells were washed three times with PBS at room temperature. The cells were then treated with 100 μL of 5 μM ACE and incubated at 37 °C for 15 min in uptake buffer. The supernatant was aspirated off and 100 μL of 5 μM ACE alone or in combination with DMSO or gilteritinib (0.1–20 μM) in uptake buffer were added to the cells. The plates were further incubated for 20 min at 37 °C. The supernatant was removed, and the cells were washed three times with 200 μL of ice-cold PBS. Lastly, 200 μL of 0.1 N NaOH was added to cells and incubated for 20 min at room temperature. Fluorescence was measured on a plate reader at excitation and emission wavelengths of 460 and 510 nm, respectively. The intracellular concentrations of ACE were calculated by comparison of fluorescence values observed with control samples incubated with ACE alone, which were set to 100%.

[1] = cited from earlier work
[2] = human, in vivo; cited from earlier work

CCc1nc(C(N)=O)c(Nc2ccc(N3CCC(N4CCN(C)CC4)CC3)c(OC)c2)nc1NC1CCOCC1 [Gilteritinib]
Mechanism of inhibition of OATP1B transport of EβG (human OATP1B1 (SLCO1B1); Dixon plot): noncompetitively inhibits | pIC50 (human OATP1B1 (SLCO1B1); OATP1B1 overexpressing HEK293 cells vs vector control, radiolabeled EβG, 15 min pre-incubation, read-out: IC50, inhibition of OATP1B1-mediated cellular accumulation of EβG): 5.65 | pKi (human OATP1B1 (SLCO1B1); gilteritinib 0.3–8.3 µM, EβG 0.2, 2, 20 µM, estimated, read-out: Ki (inhibition constant), EβG uptake by OATP1B1, Dixon plot): 5.80 | Effect on fluorescent signal of ACE in cells (competitive counterflow; transported substrate) (OATP1B1): decreased the fluorescent signal in cells in a concentration-dependent manner | Maximum tolerated dose ([1]; ref 4): 300 mg | Maximum tolerated dose ([1]; ref 29): 200 mg | Increase in gilteritinib exposure when co-administered with itraconazole [2]: 2.2 fold
